Laboratory results as given in patent US10648917B2, “Luminescent compositions and applications thereof” (THE PENN STATE RESEARCH FOUNDATION, priority 2015, dated 2020).
Read-outs that look alike come from different tables or passages of the source.

Legend:
[1] = tested on: NIH 3T3 mouse fibroblasts; experiment: In vitro cytotoxicity, CCK-8 cell viability assay; format: cell-based; conditions: for cell viability: 24 h
Method: NIH 3T3 mouse fibroblasts (ATCC) were used as model cells for in vitro cytotoxicity evaluations. The cells were cultured in Dulbecco's modified eagle's medium (DMEM), which had been supplemented with 10% fetal bovine serum (FBS) and 1% penicillin streptomycin. The culture flasks were kept in an incubator maintained at 37° C., 5% CO2, and 95% relative humidity. For a typical cytotoxicity study, 3T3 cells were seeded with a density of 5×10^4 cells/ml. […] of cell suspension in DMEM was added to each well in a 96-well plate and then incubated for 24 h. The culture medium was changed to 100 μL of DMEM containing the CFDs with various concentrations and followed by another 24 h incubator. A CCK-8 cell viability assay was used for a quantitative assessment of the viable cells according to the manufacturer's protocol. Viability of cells was normalized to the control of tissue culture plates (n=5).
The in vitro toxicity of CFDs was evaluated by incubating them with NIH 3T3 mouse fibroblasts at different concentrations. […] Therefore, CFDs are generally biocompatible fluorescent compounds that can be used at a high dosage. […] The red fluorescence was relatively weak since CA-Cys has relatively weak red fluorescence emission.

[2] = Fluorescence spectra, absorbance and quantum yield (spectrofluorometer, integration sphere); format: physicochemical; conditions: for Shifting (emission shifting with excitation wavelength): CFD dyes; for Φ (quantum yield) / λem (maximum emission wavelength) / λex (maximum excitation wavelength) / ϵ (extinction coefficiency): Table III
Method: Fluorescence spectra were recorded by a Horiba FluoroMax-4 spectrofluorometer. All polymer and small molecule samples were measured at a concentration of 2% w/w in 1,4-dioxane or DI water and a slit size of 1 nm by 1 nm unless otherwise specified. Quantum yields were also determined on the same spectrofluorometer by using a Quantum-φ integration sphere at the same concentration and slit size with the blank solvent as the reference. ^1H-NMR, ^13C-NMR were performed on a JNM ECS 300 spectrometer using DMSO-d6 or D2O as solvents. Attenuated total reflection Fourier transform infrared (ATR-FTIR) spectra were collected with a Bruker V70 spectrometer using BPLP films. A Shimadzu HPLC-MS system with a Phenomenex Kinetex 2.6u XB-C18 100 mm×2.9 mm column, a SPD M20A PDA detector and a RF-20AXS fluorescence detector (Ex. 360 nm and Em. 430 nm) was used to characterize the structures of fluorophores as well. The mobile phase was a gradient of DI water and acetonitrile with 0-6 min 2% acetonitrile, 6-12 min 2%-30% acetonitrile, and 12-15 min 2% acetonitrile. The flow rate was 0.15 ml/min. Electrospray ionization mass spectroscopy (ESI-MS) was performed with a positive voltage of 4.5 kV and negative mode voltage −4.0 kV and a CDL temperature of 200° C. The analysis of the degradation products of BPLPs were conducted by immersing BPLPs in 1M K2CO3 solution at 37° C. for 24 hours. After degradation, the solutions were neutralized by 1N HCl solution to pH 7 and characterized by HPLC-MS as described above.
Fluorescence spectra were recorded by a Horiba FluoroMax-4 spectrofluorometer. All samples were measured at a concentration corresponding to an optical density of 0.1 in water and a slit size of 1 nm by 1 nm unless specified. Quantum yields were also determined on same spectrofluorometer by using a Quantum-φ integration sphere at samples' maximum excitation wavelength and at an increment of 0.3 nm. Photostability studies were done by continuously exciting samples at their maximum excitation wavelength and monitoring at the maximum emission wavelength.
Fluorescence spectra were recorded on a Horiba FluoroMax-4 spectrofluorometer (Horiba Scientific, Edison N.J.). All polymer and samples were characterized at a concentration of 2 wt % in 1,4-dioxane and a slit size of 1 nm by 1 nm unless otherwise specified. The fluorescence properties of small molecule dyes were also measure in 2 wt % DI water solutions at same conditions as polymer solutions. BPLPs were also degraded in 1M K2CO3 solution at 37° C. for 24 hours and then neutralized with 1N HCl solution to pH7. The resulting degradation solutions were subject to further PL characterizations. Quantum yields were also determined on the same spectrofluorometer by using a Quantum-φ integration sphere (Horiba Scientific, Edison N.J.) at the same concentration and slit size with the blank solvent as the reference. Photostability of small molecules and polymers were determined by monitoring the emission intensity decay at their max. Excitation and emission wavelengths over 3 hours of continuous lumination in the spectrofluorometer.
Absorbance Spectra were recorded on Tecan Infinite M200 Pro UV-vis spectroscopy, and fluorescence spectra were recorded on Horiba FluoroMax-4 fluorospectroscopy at concentrations below 0.1 O.D. unless otherwise indicated. Quantum Yields were measured on the Quantum φ Integrating Sphere accessory to the FluoroMax-4, while lifetime measurements were determined through the Time-Correlation Single Photon Counting (TCSPC) accessory to the FluroMax-4. TCSPC was utilized in conjunction with NanoLED pulsed diode light source with peak excitation wavelength at 352 nm and at 10,000 counts peak preset. Emission was collected at the fluorescence λmax, unless otherwise indicated. For all pH-dependence experiments, sample pH was adjusted with sulfuric acid or sodium hydroxide. For all chloride-dependent quenching experiments, magnesium chloride hexahydrate (Sigma Aldrich) was used.

[3] = 2500 μg/ml, vs control (p<0.01)
[4] = Dianion protolytic state (physiological pH)

## CC(C(=O)O)N1C(=O)C=C(C(=O)O)CC1=O (stereo not drawn) [CA-Ala]
[1]; 1000 μg/ml, vs control
  cell viability: no significant decrease in cell viability
[1]; [3]
  cell viability: significant decrease
[2]
  Shifting (emission shifting with excitation wavelength): Yes
  Φ (quantum yield): 21.2%
  λem (maximum emission wavelength): 430 nm
  λex (maximum excitation wavelength): 361 nm
  ϵ (extinction coefficiency): 79 M⁻¹ cm⁻¹
[2]; in acetone (ε=20.7)
  band-shift effect: moderate
[2]; in dichloromethane (ε=8.93)
  band-shift effect: minimal
[2]; in water (ε=80.1)
  band-shift effect: strongest
[2]; representative CFDs, Table I
  Max. Em. Wavelength: 430 nm
  Max. Ex. Wavelength: 361 nm
  Quantum Yield: 21.2%

## O=C(O)c1cc2n(c(=O)c1)C(C(=O)O)CS2 (stereo not drawn) [CA-Cys]
[1]; 1000 μg/ml, vs control
  cell viability: no significant decrease in cell viability
[1]; [3]
  cell viability: significant decrease
[1]; 3T3 cell line
  dosage with in-vitro cytocompatibility: up to 10.3 mM
[2]
  Quantum Yield: ≤ 81%
  extinction coefficient: 8640 M⁻¹ cm⁻¹
  Shifting (emission shifting with excitation wavelength): no fluorescence band shifting was observed and No
  Φ (quantum yield): 81.4%
  λem (maximum emission wavelength): 445 nm
  λex (maximum excitation wavelength): 364 nm
  ϵ (extinction coefficiency): 8640 M⁻¹ cm⁻¹
[2]; Anion protolytic state
  Abs. Max: 354 nm
  Em. max: 440 nm
  Exc. max: 360 nm
  Stokes shift: 80 nm
  Φ: 67.24%
  ε: 7454 M⁻¹ cm⁻¹
[2]; Dianion protolytic state
  Abs. Max: 346 nm
  Em. max: 418 nm
  Exc. max: 350 nm
[2]; [4]
  Stokes shift: 67 nm
  Φ: 81.20%
  ε: ~8640 M⁻¹ cm⁻¹
[2]; Neutral protolytic state
  Abs. Max: 362 nm
  Em. max: 445 nm
  Exc. max: 366 nm
  Stokes shift: 80 nm
  Φ: Quenched
  ε: ~8300 M⁻¹ cm⁻¹
[2]; dioxane, acetone, ethanol, isopropanol, DMSO
  quenching in organic solvents compared to water: minimal quenching
[2]; representative CFDs, Table I
  Max. Em. Wavelength: 445 nm
  Max. Ex. Wavelength: 364 nm
  Quantum Yield: 81.4%
